According to patent US20030235583A1, “Combined use of a modulator of CD3 and a beta cell resting compound” (priority 2002, published 2003):

Experiments:
human islets = experiment: apoptosis of human islets incubated in high glucose; type: cell-based; details: co-incubated with compound vs not co-incubated
Text: Another potential way to intervene in the destruction of beta-cells in the development of Type 1 diabetes is by treatment with compounds that inhibit insulin secretion, thereby inducing beta-cell rest.

beta-cells = details: 3 months treatment; cited from earlier work

| SMILES | apoptosis, or programmed cell death, of human islets (human islets) | residual C-peptide, a marker of beta-cell function (beta-cells) |
| --- | --- | --- |
| CC1(NC2=NS(=O)(=O)c3sc(Cl)cc3N2)CC1 [6-chloro-3-(1-methylcyclopropyl)amino-4H-thieno[3,2-e]-1,2,4-thiadiazine 1,1-dioxide] | significantly less apoptosis | – |
| CC1=NS(=O)(=O)c2cc(Cl)ccc2N1 [diazoxide] | – | preservation of residual C-peptide |
